Values of other authors, collected in patent publication US10292953B2 (priority 2013, dated 2019).
Read-outs that look alike come from different tables or passages of the source.

Columns and labels:
ulceration of the cornea = conditions: 1% topical solution, rabbits with ulceration of the cornea
porcine cornea = conditions: solution, in vitro
corneal pain [1] = conditions: dogs, aqueous solution of 1%, topical ocular
corneal pain [2] = conditions: cats, aqueous solution of 1%, topical ocular

Oc1ccc2c3c1O[C@H]1[C@@H](O)CC[C@@]4(O)[C@@H](C2)N(CC2CCC2)CC[C@]314 [nalbuphine]
analgesic efficacy (ulceration of the cornea): Neither did the opioid semi-synthetic nalbuphine applied in the form of 1% topical solution demonstrate analgesic efficacy

CC(C)Cc1ccc(C(C)C(=O)O)cc1.NCCCC[C@H](N)C(=O)O (centres unmarked)
effect on integrity of the cornea (porcine cornea): adversely affected the integrity of the cornea

CN1CC[C@]23c4c5ccc(O)c4O[C@H]2[C@@H](O)C=C[C@H]3[C@H]1C5 [morphine]
analgesic effects in treatment of corneal pain (corneal pain [1]): did not demonstrate analgesic effects
analgesic effects in treatment of corneal pain (corneal pain [2]): did not demonstrate analgesic effects

CC(C)Cc1ccc(C(C)C(=O)O)cc1.N=C(N)NCCC[C@H](N)C(=O)O (centres unmarked)
effect on integrity of the cornea (porcine cornea): adversely affected the integrity of the cornea
